Experimental data reported in US20090181948A1, “DIAMINE DERIVATIVE” (KYOWA HAKKO KOGYO CO., LTD., priority 2005, published 2009).

What was measured:
[1] = molecular target: T1, histamine H3 receptor (Rattus norvegicus, UniProt Q9QYN8); test: Inhibitory effect on histamine release suppressive action of histamine H3 receptor agonist (Nα-methylhistamine) in rat forebrain synaptosomes; type: biochemical; conditions: 1 μmol/L test compound and 1 μmol/L Nα-methylhistamine, potassium 30 mmol/L stimulation, read-out: Inhibition ratio of the [3H]-histamine release suppressive action of Nα-methylhistamine
T1 construct: from tissue; host or cells: rat striatum (Sprague-Dawley, male, 6 weeks), membrane homogenate
Description: To the forebrains of Sprague-Dawley male rats (6 to 8 weeks of age), a 30-fold volume of a 0.32 mol/L aqueous sucrose solution was added and the forebrains were homogenized. The resulting homogenate was centrifuged (1,000×g, 4° C., 10 min), and to the obtained supernatant, an equivalent volume of Krebs-Ringer solution [120 mmol/L sodium chloride, 0.8 mmol/L potassium chloride, 2.6 mmol/L calcium chloride, 0.67 mmol/L magnesium sulfate, 1.2 mmol/L potassium dihydrogen phosphate, 27.5 mmol/L sodium bicarbonate, 10 mmol/L glucose (pH 7.3)] was added, and the resulting mixture was centrifuged (10,000×g, 4° C., 15 min). To the obtained precipitate, a 15-fold volume of Krebs-Ringer solution was added to suspend the precipitate. Then, the concentration of protein in the resulting tissue homogenate (synaptosomes) was measured and used for a test.
To the synaptosomes (300 μg in terms of protein amount) prepared by the above-described method, a [^3H]-histidine solution [final concentration: […] (740 kBq)/mL]: 6 μl of a 37 MBq/mL (specific activity: […]) solution] was added, and the total volume was adjusted to 300 μL with Krebs-Ringer solution. Then, the resulting mixture was incubated at 37° C. for 30 minutes and centrifuged (10,000×g, 25° C., 3 min). To the resulting precipitate (synaptosomes), 300 μL of Krebs-Ringer solution was added, and the mixture was incubated at 37° C. for 5 minutes and centrifuged (10,000×g, 25° C., 3 min). This procedure was repeated 5 times, whereby washing of synaptosomes was carried out. The resulting synaptosomes were suspended in 100 μL of Krebs-Ringer solution, and the resulting suspension was used for the following procedure.
A test compound and N^α-methylhistamine were separately dissolved in Krebs-Ringer solution to give a concentration of 20 μmol/L (the resulting mixtures were referred to as a test compound solution and a N^α-methylhistamine solution, respectively). To 100 μL of the above-described suspended synaptosomes (300 μg in terms of protein amount), 140 μL of Krebs-Ringer solution was added. Then, 30 μL of the test compound solution and 30 μL of the N^α-methylhistamine solution were added thereto, and the resulting mixture was incubated at 37° C. for 2 minutes. Then, an equivalent volume of a stimulating solution [64 mmol/L sodium chloride, 56.8 mmol/L potassium chloride, 2.6 mmol/L calcium chloride, 0.67 mmol/L magnesium sulfate, 1.2 mmol/L potassium dihydrogen phosphate, 27.5 mmol/L sodium bicarbonate, 10 mmol/L glucose (pH 7.3)] (final potassium concentration: 30 mmol/L) was added, and the resulting mixture was incubated at 37° C. for 2 minutes to release [^3H]-histamine. The reaction mixture was centrifuged (10,000×g, 25° C., 3 min), and the obtained supernatant was passed through Amberlite CG-50 column (250 μL), and the non-adsorbed fractions were discarded. Then, 2 mL of 50 mmol/L [[…]]/hydrochloric acid (HCl) (pH 7.5) (Tris) was passed through the column 3 times, and 2 mL of distilled water, and 1.5 mL of a 0.2 mol/L aqueous sodium hydroxide solution were passed through the column in this order, and the eluted fractions were discarded. Then, 2 mL of a 0.2 mol/L aqueous sodium hydroxide solution was passed through the column, and the eluted fraction was recovered in a scintillation vial. Then, 8 mL of Ultimagold (Perkin Elmer) was added to the recovered eluted solution, and the radioactivity ([^3H]-histamine) was measured using a liquid scintillation counter. The inhibitory action of the test compound on the histamine release suppressive action of N^α-methylhistamine was evaluated by obtaining the inhibition ratio to the histamine release suppressive action in the presence of 1 μmol/L No-methylhistamine and 1 μmol/L of the test compound. The inhibition ratio of the [^3H]-histamine release suppressive action was calculated using the following Equation (2). […]

[2] = molecular target: T1, histamine H3 receptor; test: Histamine H3 receptor binding assay ([3H]-Nα-methylhistamine binding to rat striatum homogenate); conditions: 1 μmol/L test compound; [3H]-Nα-methylhistamine 1 nmol/L; striata of Sprague-Dawley male rats, 25° C., 1 hour; read-out: Inhibition ratio of [3H]-Nα-methylhistamine binding
Procedure, shortened: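 Rat striatum membranes (20 μg protein) incubated with [3H]-Nα-methylhistamine 1 nmol/L in 50 mmol/L Tris/HCl pH 7.4, 5 mmol/L EDTA, 1 hour at 25° C; bound ligand by filtration and scintillation counting. Nonspecific binding defined with 10 μmol/L thioperamide; % inhibition reported at 1 μmol/L compound.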

T1 sequence (Q9QYN8 whole entry): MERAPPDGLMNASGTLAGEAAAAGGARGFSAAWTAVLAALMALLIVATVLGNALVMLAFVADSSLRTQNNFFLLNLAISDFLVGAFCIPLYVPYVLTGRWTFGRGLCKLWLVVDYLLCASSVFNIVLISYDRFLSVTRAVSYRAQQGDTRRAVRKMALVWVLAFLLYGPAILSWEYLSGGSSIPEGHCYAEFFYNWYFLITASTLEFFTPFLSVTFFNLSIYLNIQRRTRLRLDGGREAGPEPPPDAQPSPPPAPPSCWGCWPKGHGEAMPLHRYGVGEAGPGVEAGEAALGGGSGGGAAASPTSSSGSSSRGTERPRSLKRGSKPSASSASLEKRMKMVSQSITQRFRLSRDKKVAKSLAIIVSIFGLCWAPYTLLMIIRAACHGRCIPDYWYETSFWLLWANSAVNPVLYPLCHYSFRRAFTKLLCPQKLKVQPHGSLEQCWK

| inhibition at 1 µM [1] [%] | inhibition at 1 µM [2] [%] | melting point [°C] | Compound |
| --- | --- | --- | --- |
| ≥ 70 | ≥ 80 | 104 to 105 | CN(CCCN1CCCCC1)C(=C(C#N)C#N)N1CCC(N2CCCCC2)CC1 [Compound 161, {[N-methyl-N-(3-piperidinopropyl)amino](4-piperidinopiperidino)methylene}malononitrile] |
| ≥ 70 | ≥ 80 | 104 to 106 | CN(CCCN1CCOCC1)C(=C(C#N)C#N)N1CCC(N2CCCCC2)CC1 [Compound 166] |
| ≥ 70 | ≥ 80 | 104 to 105 | N#CC(C#N)=C1N(CCCN2CCCCC2)CCN1C1CCN(C2CC2)CC1 [Compound 226, [1-(1-Cyclopropylpiperidin-4-yl)-3-(3-piperidinopropyl)imidazolidin-2-ylidene]malononitrile] |
| ≥ 70 | ≥ 80 | 109 to 111 | CN(CCN1CCCCC1)C(=C(C#N)C#N)N1CCC(N2CCCCC2)CC1 [Compound 144, {[Methyl(2-piperidinoethyl)amino](4-piperidinopiperidino)methylene}malononitrile] |
| ≥ 70 | ≥ 80 | 129 to 130 | CC(C)N1CCC(N(C)C(=C(C#N)C#N)N2CCC(N3CCCCC3)CC2)CC1 [Compound 176, {[N-(1-isopropylpiperidin-4-yl)-N-methylamino](4-piperidinopiperidino)methylene}malononitrile] |
| ≥ 70 | ≥ 80 | 116 to 117 | CN(CCCN1CCCCC1)C(=C(C#N)C#N)N1CCC(N2CCCC2)CC1 [Compound 159, {[N-methyl-N-(3-piperidinopropyl)amino][4-(pyrrolidin-1-yl)piperidino]methylene}malononitrile] |
| ≥ 70 | ≥ 80 | 198 to 200 | N#CC(C#N)=C(NCCN1CCCCC1)N1CCC(N2CCCCC2)CC1 [Compound 143, [(2-Piperidinoethylamino)(4-piperidinopiperidino)methylene]malononitrile] |
| ≥ 70 | ≥ 80 | 117 to 118 | N#CC(C#N)=C(NCCCN1CCCCC1)N1CCC(N2CCCCC2)CC1 [Compound 160, [(4-Piperidinopiperidino)(3-piperidinopropylamino)methylene]malononitrile] |

More lines, now with the values behind:

| Compound | inhibition at 1 µM [1] [%] | inhibition at 1 µM [2] [%] | melting point [°C] |
| --- | --- | --- | --- |
| CC(C)N1CCC(N2CCN(CCCN3CCC(=O)CC3)C2=C(C#N)C#N)CC1 [Compound 233, {1-(1-Isopropylpiperidin-4-yl)-3-[3-(4-oxopiperidino)propyl]imidazolidin-2-ylidene}malononitrile] | ≥ 70 | ≥ 80 | 103 to 105 |
| CC1CCCN1CCCN1CCN(CCCN2CCC[C@@H]2CO)C1=C(C#N)C#N (stereo partly drawn) [Compound 119, {1-[3-((R)-2-hydroxymethylpyrrolidin-1-yl)propyl]-3-[3-(2-methylpyrrolidin-1-yl)propyl]imidazolidin-2-ylidene}malononitrile] | ≥ 70 | ≥ 80 | 57 to 59 |
| C[C@@H]1CCCN1CCN1CCN(CCN2CCC[C@H]2C)C1=C(C#N)C#N [Compound 189, {1,3-Bis[2-((R)-2-methylpyrrolidin-1-yl)ethyl]imidazolidin-2-ylidene}malononitrile] | ≥ 70 | ≥ 80 | 139 to 141 |
| C[C@H]1CCCN1CCCN1CCN(CCCN2CCC[C@@H]2C)C1=C(C#N)C#N [Compound 115, {1,3-Bis[3-((S)-2-methylpyrrolidin-1-yl)propyl]imidazolidin-2-ylidene}malononitrile] | ≥ 70 | ≥ 80 | 79 to 80 |
| CC(C)N1CCC(N2CCN(CCCN3C[C@@H](C)O[C@@H](C)C3)C2=C(C#N)C#N)CC1 [Compound 234, {3-[3-(Cis-2,6-dimethylmorpholino)propyl]-1-(1-isopropylpiperidin-4-yl)imidazolidin-2-ylidene}malononitrile] | ≥ 70 | ≥ 80 | 117 to 118 |
| CC1CCCN1CCCN1CCN(CCN2CCCC2C)C1=C(C#N)C#N (stereo not drawn) [Compound 11, {1-[2-(2-Methylpyrrolidin-1-yl)ethyl]-3-[3-(2-methylpyrrolidin-1-yl)propyl]imidazolidin-2-ylidene}malononitrile] | ≥ 70 | ≥ 80 | 69 to 71 |
| CC(C)N1CCC(N2CCN(CCCN3CCSCC3)C2=C(C#N)C#N)CC1 [Compound 231, [1-(1-Isopropylpiperidin-4-yl)-3-(3-thiomorpholin-1-ylpropyl)imidazolidin-2-ylidene]malononitrile] | ≥ 70 | ≥ 80 | 124 to 125 |
| C[C@H]1CCCN1CCN1CCN(CCCN2CCCCC2)C1=C(C#N)C#N [Compound 58, {1-[2-((S)-2-methylpyrrolidin-1-yl)ethyl]-3-(3-piperidinopropyl)imidazolidin-2-ylidene}malononitrile] | ≥ 70 | ≥ 80 | 95 to 96 |
| C[C@H]1CCCN1CCCN1CCN(CCN2CCC[C@@H]2C)C1=C(C#N)C#N [Compound 56, {1-[2-((S)-2-methylpyrrolidin-1-yl)ethyl]-3-[3-((S) 2-methylpyrrolidin-1-yl)propyl]imidazolidin-2-ylidene}malononitrile] | ≥ 70 | ≥ 80 | 70 to 72 |
| CC(C)N1CCC(N(C)C(=C(C#N)C#N)N2CCC(CN3CCCC3C)CC2)CC1 (stereo not drawn) [Compound 181, {[N-(1-isopropylpiperidin-4-yl)-N-methylamino][4-(2-methylpyrrolidin-1-ylmethyl)piperidino]methylene}malononitrile] | ≥ 70 | ≥ 80 | 138 to 140 |
| C[C@@H]1CCCN1CCN1CCN(CCCN2CCCCC2)C1=C(C#N)C#N [Compound 193, {1-[2-((R)-2-methylpyrrolidin-1-yl)ethyl]-3-(3-piperidinopropyl)imidazolidin-2-ylidene}malononitrile] | ≥ 70 | ≥ 80 | 89 to 90 |
| CC1CCCN1CCN1CCN(CCCN2CCCCC2)C1=C(C#N)C#N (stereo not drawn) [Compound 57, {1-[2-(2-Methylpyrrolidin-1-yl)ethyl]-3-(3-piperidinopropyl)imidazolidin-2-ylidene}malononitrile] | ≥ 70 | ≥ 80 | 84 to 86 |
| CC1CCCN1CCCN1CCN(CCCN2CCCC2C)C1=C(C#N)C#N (stereo not drawn) [Compound 65, {1,3-Bis[3-(2-methylpyrrolidin-1-yl)propyl]imidazolidin-2-ylidene}malononitrile] | ≥ 70 | ≥ 80 | 89 to 93 |
